In PMC11096480, “The road to evolution of ProTx2: how to be a subtype-specific inhibition of human Nav1.7” (Frontiers in Pharmacology, 2024):
“Also recorded” adds a separate entry of the source. Where no end group is shown, it is not given here.

What was measured:
[1] = target: human voltage-gated sodium channel Nav1.7, on CHO cells (human) (UniProt Q15858)
[2] = target: human voltage-gated sodium channel Nav1.4, on CHO cells (human) (UniProt P35499)
hNav1.4 = experiment: whole-cell patch clamp, CHO-Nav1.4 sodium current; type: cell-based, human
Description: (§1) Nav1.4-CHO cells and Nav1.7-CHO cells were maintained in Iscove’s modified Dulbecco’s medium (Gibco) supplemented with 10% (v/v) fetal bovine serum (FBS) and 200 μg/mL G418 (Sigma). All cells were cultured at 37 °C and 5% CO2 atmosphere. Mouse myoblasts C2C12, obtained from the Stem Cell Bank of The Chinese Academy of Sciences, were grown in Dulbecco’s modified Eagle‘s medium (DMEM) enriched with 10% heat-inactivated FBS, 2 mM L glutamine, 100 U/mL of penicillin, and 100 μg/mL of streptomycin. The C2C12 cells typically reached confluence in 3–5 days in 75-T flasks. For passaging, monolayers were treated with 0.25% trypsin for 3–5 min, rinsed twice with DMEM, and sub-cultured at a ratio of 1:4. Similarly, the Chinese hamster ovary (CHO) cells were cultured in IMDM medium supplemented with 10% fetal bovine serum, 1% penicillin/streptomycin, 100 μM hypoxanthine, and 16 μM thymidine. When 90% confluence was achieved, cells were separated by 0.25% trypsin EDTA, and patch clamp electrophysiology experiments were carried out.
(§2) Automatic electrophysiological platforms (NPC-1 and Port-a-Patch systems, […], Munich, Germany) and EPC10 amplifiers (HEKA Elektronik, Lambrecht, Germany) assessed the effects of recombinant ProTx2 and its mutants on CHO-Nav1.4 and CHO-Nav1.7. […]

hNav1.7 = experiment: whole-cell patch clamp, CHO-Nav1.7 sodium current; type: cell-based, human
Description: as §1, §2

C2C12 cells = experiment: C2C12 cell viability (CCK8 assay); type: cell-based, mouse; settings: CCK8, 450 nm, 18-h exposure, 0-160 μg/mL, serum-free, n = 5; R13D effect particularly between 100 and 160 μg/mL; relative to wild-type peptide
Description: as §1
C2C12 cell viability in response to ProTx2 or it mutants was evaluated using the CCK8 assay ([Pan et al., 2019]; [Ge et al., 2020]). […] After 18 h of treatment, cell viability was assessed by measuring the absorbance at 450 nm, following the addition of the CCK-8 reagent.

KM mice [3] = experiment: forced swimming test; type: in vivo
Description: Additionally, a forced swimming test measured endurance following 7 days of treatment with ProTx2 or its mutants ([Porsolt et al., 1977]; [Galeotti et al., 2002]; [Xu et al., 2017]). Fifty male KM mice were randomly divided into five groups with 10 mice in each group. The groups were classified as normal saline control, ProTx2, R13A, R13D, and K27Y.
Following a 7-day treatment regimen, mice received injections of ProTx2 or its mutants and underwent forced swimming tests 20 min after the final treatment.

KM mice [4] = experiment: formalin-induced paw-licking test; type: in vivo
Description: Male KM mice (18–22 g) were obtained from Liaoning Changsheng Biotechnology Co., Ltd. The mice were acclimated for 1 week at 18°C–22°C and 50%–70% humidity, following approval by the Animal Ethics Committee of Shenyang Pharmaceutical University, China. The pain response was assessed using a formalin-induced paw-licking test. The saline solution, 5 mg/kg morphine, commonly used analgesic medications in clinical practice, or 0.75 mg/kg peptides, ProTx II, and its mutants, were injected via the tail vein to relief the pain. After half an hour, a 20-μL 5% (v/v) formalin solution was administered as an activator to induce pain in mice (n = 10) ([Miranda et al., 2007]). The cumulative pain behavior that occurred 0–5 min (phase I, an immediate nociceptive phase) and 20–60 min (phase II, a later inflammatory phase) after injection was recorded for 60 min at 5 min intervals in individual cages to measure the total licking time in phases I and II, respectively.

Sequence of UniProt P35499 (P35499 whole entry): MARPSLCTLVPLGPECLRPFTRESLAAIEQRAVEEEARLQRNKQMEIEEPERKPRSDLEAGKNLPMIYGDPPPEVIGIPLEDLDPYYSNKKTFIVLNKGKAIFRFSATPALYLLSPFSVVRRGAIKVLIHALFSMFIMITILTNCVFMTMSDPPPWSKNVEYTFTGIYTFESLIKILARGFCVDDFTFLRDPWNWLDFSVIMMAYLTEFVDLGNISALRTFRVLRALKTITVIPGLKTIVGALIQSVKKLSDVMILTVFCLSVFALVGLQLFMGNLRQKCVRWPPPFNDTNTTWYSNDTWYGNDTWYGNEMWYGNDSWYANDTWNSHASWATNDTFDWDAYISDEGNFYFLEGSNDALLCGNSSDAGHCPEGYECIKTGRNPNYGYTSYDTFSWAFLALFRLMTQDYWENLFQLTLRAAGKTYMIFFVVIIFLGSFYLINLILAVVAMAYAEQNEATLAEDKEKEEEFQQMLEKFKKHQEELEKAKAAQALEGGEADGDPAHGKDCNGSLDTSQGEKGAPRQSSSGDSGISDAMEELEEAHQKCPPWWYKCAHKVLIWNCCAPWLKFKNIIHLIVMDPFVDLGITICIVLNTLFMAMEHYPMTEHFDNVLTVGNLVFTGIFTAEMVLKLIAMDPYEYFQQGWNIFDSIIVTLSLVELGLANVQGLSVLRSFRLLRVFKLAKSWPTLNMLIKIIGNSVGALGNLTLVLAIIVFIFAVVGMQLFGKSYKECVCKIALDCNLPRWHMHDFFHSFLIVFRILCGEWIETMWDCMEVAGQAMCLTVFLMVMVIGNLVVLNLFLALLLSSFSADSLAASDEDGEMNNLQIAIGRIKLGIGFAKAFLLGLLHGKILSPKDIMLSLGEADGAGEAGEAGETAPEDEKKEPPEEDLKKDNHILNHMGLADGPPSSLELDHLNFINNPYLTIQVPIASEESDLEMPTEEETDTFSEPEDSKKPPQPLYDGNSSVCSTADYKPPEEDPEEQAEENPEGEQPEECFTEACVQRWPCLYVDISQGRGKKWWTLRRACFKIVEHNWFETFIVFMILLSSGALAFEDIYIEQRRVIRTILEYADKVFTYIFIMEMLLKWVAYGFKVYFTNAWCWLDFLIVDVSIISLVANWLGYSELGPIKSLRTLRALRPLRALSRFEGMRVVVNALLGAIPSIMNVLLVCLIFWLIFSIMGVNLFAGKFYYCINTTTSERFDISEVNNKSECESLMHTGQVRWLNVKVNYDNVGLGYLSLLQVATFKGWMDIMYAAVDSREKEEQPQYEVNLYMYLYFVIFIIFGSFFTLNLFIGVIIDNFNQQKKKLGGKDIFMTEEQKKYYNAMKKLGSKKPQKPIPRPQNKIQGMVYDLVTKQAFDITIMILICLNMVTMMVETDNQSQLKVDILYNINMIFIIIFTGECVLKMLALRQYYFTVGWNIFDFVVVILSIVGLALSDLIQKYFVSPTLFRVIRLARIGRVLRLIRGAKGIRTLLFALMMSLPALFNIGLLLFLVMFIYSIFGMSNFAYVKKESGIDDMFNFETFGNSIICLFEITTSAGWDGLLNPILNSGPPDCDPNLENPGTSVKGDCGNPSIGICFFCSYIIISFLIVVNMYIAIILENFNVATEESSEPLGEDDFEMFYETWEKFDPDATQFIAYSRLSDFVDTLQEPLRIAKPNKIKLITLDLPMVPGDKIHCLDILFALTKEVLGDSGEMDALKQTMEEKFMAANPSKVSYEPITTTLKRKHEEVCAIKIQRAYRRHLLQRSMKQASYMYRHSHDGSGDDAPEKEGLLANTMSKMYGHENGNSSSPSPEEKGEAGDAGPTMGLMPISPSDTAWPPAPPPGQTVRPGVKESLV
Sequence of UniProt Q15858 (Q15858 whole entry): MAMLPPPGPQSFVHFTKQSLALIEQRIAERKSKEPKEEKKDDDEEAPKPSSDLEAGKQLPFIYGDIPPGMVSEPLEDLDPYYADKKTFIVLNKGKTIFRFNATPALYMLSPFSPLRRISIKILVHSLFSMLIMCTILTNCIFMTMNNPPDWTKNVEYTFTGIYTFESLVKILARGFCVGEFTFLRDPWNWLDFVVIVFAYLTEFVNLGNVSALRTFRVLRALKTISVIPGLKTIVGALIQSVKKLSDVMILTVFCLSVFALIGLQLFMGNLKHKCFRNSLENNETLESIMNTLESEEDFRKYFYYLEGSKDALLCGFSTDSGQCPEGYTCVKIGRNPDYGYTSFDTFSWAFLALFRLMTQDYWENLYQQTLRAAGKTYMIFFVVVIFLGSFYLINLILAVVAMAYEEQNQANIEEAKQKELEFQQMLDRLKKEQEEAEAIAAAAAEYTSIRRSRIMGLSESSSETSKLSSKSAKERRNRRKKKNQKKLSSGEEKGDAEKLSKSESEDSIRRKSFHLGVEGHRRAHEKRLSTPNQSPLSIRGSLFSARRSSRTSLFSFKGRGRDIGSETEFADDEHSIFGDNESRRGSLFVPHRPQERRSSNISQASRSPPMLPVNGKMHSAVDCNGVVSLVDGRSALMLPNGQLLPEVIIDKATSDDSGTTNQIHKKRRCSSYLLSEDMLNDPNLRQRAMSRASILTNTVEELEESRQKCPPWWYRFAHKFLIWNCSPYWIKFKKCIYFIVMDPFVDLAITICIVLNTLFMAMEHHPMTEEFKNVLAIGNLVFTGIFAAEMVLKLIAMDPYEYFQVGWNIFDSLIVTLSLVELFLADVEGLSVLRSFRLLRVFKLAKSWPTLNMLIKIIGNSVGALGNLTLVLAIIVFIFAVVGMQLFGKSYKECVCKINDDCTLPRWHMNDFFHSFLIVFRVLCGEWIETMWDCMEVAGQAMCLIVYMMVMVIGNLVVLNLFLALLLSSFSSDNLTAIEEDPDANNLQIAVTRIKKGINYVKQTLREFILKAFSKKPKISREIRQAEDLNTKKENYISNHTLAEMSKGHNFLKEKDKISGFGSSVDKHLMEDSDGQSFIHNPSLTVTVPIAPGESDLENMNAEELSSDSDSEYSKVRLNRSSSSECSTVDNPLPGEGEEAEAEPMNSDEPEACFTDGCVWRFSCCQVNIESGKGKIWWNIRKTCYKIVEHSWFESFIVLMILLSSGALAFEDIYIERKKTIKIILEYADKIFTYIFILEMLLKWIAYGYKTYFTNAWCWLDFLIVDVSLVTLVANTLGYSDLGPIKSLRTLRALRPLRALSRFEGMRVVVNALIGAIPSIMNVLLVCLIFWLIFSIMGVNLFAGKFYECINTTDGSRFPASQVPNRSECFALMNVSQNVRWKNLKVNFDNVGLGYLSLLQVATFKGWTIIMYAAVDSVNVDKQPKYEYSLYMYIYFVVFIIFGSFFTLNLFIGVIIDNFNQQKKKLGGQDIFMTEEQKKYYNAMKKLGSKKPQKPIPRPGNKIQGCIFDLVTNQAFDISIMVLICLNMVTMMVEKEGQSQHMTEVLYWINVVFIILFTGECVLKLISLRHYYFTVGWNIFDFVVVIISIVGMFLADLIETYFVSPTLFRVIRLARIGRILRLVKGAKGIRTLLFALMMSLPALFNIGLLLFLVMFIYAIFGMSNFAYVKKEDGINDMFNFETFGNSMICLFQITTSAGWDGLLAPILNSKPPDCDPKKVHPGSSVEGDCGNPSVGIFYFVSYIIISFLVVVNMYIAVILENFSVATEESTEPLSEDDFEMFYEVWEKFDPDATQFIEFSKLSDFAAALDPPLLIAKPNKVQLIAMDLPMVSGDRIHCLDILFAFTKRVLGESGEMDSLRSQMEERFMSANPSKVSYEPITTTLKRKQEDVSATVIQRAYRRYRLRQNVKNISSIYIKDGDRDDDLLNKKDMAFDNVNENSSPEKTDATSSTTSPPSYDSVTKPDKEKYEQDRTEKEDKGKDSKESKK

## ProTx2 mutant R13D, recombinant (from UniProt P83476 1-30) (peptide)
[1]
  peak sodium current amplitude (normalized) of hNav1.7-CHO cells, whole-cell patch clamp, peptide at 1 μM: 68%
[2]
  peak sodium current amplitude (normalized) of hNav1.4-CHO cells, whole-cell patch clamp, peptide at 1 μM: 59%

## R13D: single-point mutation (R13D) in ProTx2 (YCQKWMWTCDSEDKCCEGMVCRLWCKKKLW; ends and bridges not checked; cysteine pairing not given here)
hNav1.4; 1 μM, normalized Na+ peak current at −30 mV, CHO cells, whole-cell, holding −80 mV, 22°C, 10 cells per set
  peak sodium current amplitude, hNav1.4: 59%
hNav1.4; CHO-Nav1.4, whole-cell, relative to ProTx2 for R13D
  inhibition of hNav1.4 current: marginally diminished effect on hNav1.4
hNav1.7; 1 μM, normalized Na+ peak current at −30 mV, CHO cells, whole-cell, holding −80 mV, 22°C, 10 cells per set, R13D vs ProTx2 p < 0.01
  peak sodium current amplitude, hNav1.7: 68%
hNav1.7; CHO-Nav1.7, whole-cell, relative to ProTx2 for R13D
  inhibition of hNav1.7 current: pronouncedly intensified inhibition of hNav1.7
C2C12 cells
  C2C12 cellular viability: significantly improved cellular viability in a concentration-dependent manner, particularly between 100 and 160 μg/mL
KM mice [3]; 7-day treatment, test 20 min after final treatment, male KM mice, n = 10, versus wild-type ProTx2
  swimming endurance / muscular toxicity: significantly prolonged endurance compared to the wild-type ProTx2 group, suggesting reduced muscular toxicity (p < 0.05)
KM mice [3]; summary in abstract, compared with ProTx2
  muscle toxicity: dramatically reducing its muscle toxicity compared with ProTx2
KM mice [4]; formalin model, 0.75 mg/kg peptide, tail vein, versus wild-type ProTx2, 0.75 mg/kg
  analgesic effect: maintained the analgesic effect in mice; also recorded: significantly alleviated pain in both the acute and inflammatory phases, outperforming the wild-type ProTx2
KM mice [4]; phase I (0–5 min), 0.75 mg/kg peptide, tail vein, half an hour before 20 μL 5% formalin, male KM mice, n = 10
  total licking time, phase I: 33.5 ± 1.6 s
KM mice [4]; phase II (20–60 min), 0.75 mg/kg peptide, tail vein, half an hour before 20 μL 5% formalin, male KM mice, n = 10
  total licking time, phase II: 128.0 ± 5.2 s

## ProTx2 (Protoxin-II), wild type, recombinant (from UniProt P83476 1-30) (peptide)
[1]
  peak sodium current amplitude (normalized) of hNav1.7-CHO cells, whole-cell patch clamp, peptide at 1 μM: 82%
[2]
  peak sodium current amplitude (normalized) of hNav1.4-CHO cells, whole-cell patch clamp, peptide at 1 μM: 50%

## CN1CC[C@]23c4c5ccc(O)c4O[C@H]2[C@@H](O)C=C[C@H]3[C@H]1C5 [morphine, reference compound]
KM mice [4]; mouse, in vivo, 5 mg/kg
  total licking time, phase I (morphine): 7.5 ± 1.6 s
  total licking time, phase II (morphine): 42.1 ± 6.1 s
